Data published in US20230095836A1, “SUBSTITUTED 5,6-DIPHENYL-3(2H)-PYRIDAZINONES FOR USE AS FUNGICIDES” (FMC Corporation, priority 2020, published 2023).

Key:
Type in all cases: in vivo
[1] = system: Zymoseptoria tritici; experiment: Test A: test solution sprayed on wheat seedlings, inoculated next day with Zymoseptoria tritici (wheat leaf blotch); disease rating (100 = 100% disease control, 0 = no control; dash = not tested)
Method: The resulting test suspensions were then used in Tests A-F. The test solution was sprayed to the point of run-off on wheat seedlings. The following day the seedlings were inoculated with a spore suspension of Zymoseptoria tritici (the causal agent of wheat leaf blotch) and incubated in a saturated atmosphere at 24° C. for 48 h, and then moved to a growth chamber at 20° C. for 17 days, after which time disease ratings were made. A rating of 100 indicates 100% disease control and a rating of 0 indicates no disease control (relative to the controls). A dash (—) indicates the compound was not tested.

[2] = system: Phakopsora pachyrhizi; experiment: Test D: test solution sprayed on soybean seedlings, inoculated next day with Phakopsora pachyrhizi (Asian soybean rust); visual disease rating (100 = 100% disease control, 0 = no control; dash = not tested)
Description: General protocol for preparing test suspensions for Tests A-F: the test compounds were first dissolved in acetone in an amount equal to 3% of the final volume and then suspended at the desired concentration (in ppm) in acetone and purified water (50/50 mix by volume) containing 250 ppm of the surfactant PEG400 (polyhydric alcohol esters). The resulting test suspensions were then used in Tests A-F.
The test solution was sprayed to the point of run-off on soybean seedlings. The following day the seedlings were inoculated with a spore suspension of Phakopsora pachyrhizi (the causal agent of Asian soybean rust) and incubated in a saturated atmosphere at 22° C. for 24 h and then moved to a growth chamber at 22° C. for 8 days, after which time visual disease ratings were made.
A rating of 100 indicates 100% disease control and a rating of 0 indicates no disease control (relative to the controls). A dash (—) indicates the compound was not tested.

[3] = system: Puccinia recondita f. sp. tritici; experiment: Test B: test solution sprayed on wheat seedlings, inoculated next day with Puccinia recondita f. sp. tritici (wheat leaf rust); disease rating (100 = 100% disease control, 0 = no control; dash = not tested)
Description: The resulting test suspensions were then used in Tests A-F. The test solution was sprayed to the point of run-off on wheat seedlings. […] A rating of 100 indicates 100% disease control and a rating of 0 indicates no disease control (relative to the controls). A dash (—) indicates the compound was not tested.

[4] = system: Blumeria graminis f. sp. tritici; experiment: Test C: test suspension sprayed on wheat seedlings, inoculated next day with Blumeria graminis f. sp. tritici (wheat powdery mildew); visual disease rating (100 = 100% disease control, 0 = no control; dash = not tested)
Method: The resulting test suspensions were then used in Tests A-F. The test suspension was sprayed to the point of run-off on wheat seedlings. The following day the seedlings were inoculated with a spore dust of Blumeria graminis f. sp. tritici, (also known as Erysiphe graminis f. sp. tritici, the causal agent of wheat powdery mildew) and incubated in a growth chamber at 20° C. for 8 days, after which time visual disease ratings were made. A rating of 100 indicates 100% disease control and a rating of 0 indicates no disease control (relative to the controls). A dash (—) indicates the compound was not tested.

[5] = system: Botrytis cinerea; experiment: Test E: test suspension sprayed on tomato seedlings, inoculated next day with Botrytis cinerea (tomato Botrytis); visual disease rating (100 = 100% disease control, 0 = no control; dash = not tested)
Method: (§1) The resulting test suspensions were then used in Tests A-F. The test suspension was sprayed to the point of run-off on tomato seedlings. The following day the seedlings were inoculated with a spore suspension of Botrytis cinerea (the causal agent of tomato Botrytis) and incubated in a saturated atmosphere at 20° C. for 48 h, and then moved to a growth chamber at 24° C. for 3 days, after which time visual disease ratings were made. A rating of 100 indicates 100% disease control and a rating of 0 indicates no disease control (relative to the controls). A dash (—) indicates the compound was not tested.

[6] = system: Alternaria solani; experiment: Test F: test suspension sprayed on tomato seedlings, inoculated next day with Alternaria solani (tomato early blight); visual disease rating (100 = 100% disease control, 0 = no control; dash = not tested)
Method: as §1, with “Alternaria solani” for “Botrytis cinerea”, “early blight)” for “Botrytis)”, “27°” for “20°”, “20°” for “24°”

Row | SMILES | Test A disease control rating ([1]; 250 ppm) [%] | Test D disease control rating ([2]; 250 ppm) [%] | Test B disease control rating ([3]; 250 ppm) [%] | Test C disease control rating ([4]; 250 ppm) [%] | Test E disease control rating ([5]; 250 ppm) [%] | Test F disease control rating ([6]; 250 ppm) [%] | Test A disease control rating ([1]; 50 ppm) [%] | Test D disease control rating ([2]; 50 ppm) [%] | Test B disease control rating ([3]; 50 ppm) [%] | Test C disease control rating ([4]; 50 ppm) [%] | Test E disease control rating ([5]; 50 ppm) [%] | Test F disease control rating ([6]; 50 ppm) [%]
1 | CCn1nc(-c2ccc(F)cc2Cl)c(-c2ccc(F)cc2Cl)cc1=O [Compound 11] | 2 | 0 | 9 | 64 | 87 | 0 |  |  |  |  |  | 
2 | COc1cc(OC)cc(-c2nn(C)c(=O)c(OC)c2-c2ccc(F)cc2Cl)c1 [Compound 78] |  |  |  |  |  |  | 100 | 59 | 99 | 98 | 95 | 99
3 | Cn1nc(-c2cccc(F)c2Cl)c(-c2ccc(F)cc2Cl)c(Cl)c1=O [Compound 145] |  |  |  |  |  |  | 100 | 99 | 100 | 100 | 100 | 100
4 | COc1c(-c2ccc(F)cc2Cl)c(-c2cc(F)ccc2Br)nn(C)c1=O [Compound 121] |  |  |  |  |  |  | 100 | 72 | 100 | 99 | 99 | 99
5 | COc1cc(OC)c(Cl)c(-c2nn(C)c(=O)c(C)c2-c2ccc(F)cc2Cl)c1Cl [Compound 47] |  |  |  |  |  |  | 52 | 0 | 68 | 43 | 91 | 0
6 | CCc1c(-c2c(F)cccc2F)c(-c2cc(OC)cc(F)c2Cl)nn(C)c1=O [Compound 180] |  |  |  |  |  |  | 100 | 100 | 100 | 100 | 99 | 100
7 | COc1cc(OC)cc(-c2nn(C)c(=O)c(Cl)c2-c2ccc(F)cc2Cl)c1 [Compound 55] |  |  |  |  |  |  | 99 | 99 | 100 | 98 | 99 | 99
8 | COc1cc(-c2nn(C)c(=O)c(Cl)c2-c2ccc(F)cc2Cl)cc(C#N)c1Cl [Compound 52] |  |  |  |  |  |  | 100 | 98 | 100 | 99 | 92 | 100
9 | Cn1nc(-c2ccc(F)cc2Br)c(-c2ccc(F)cc2Cl)c(Cl)c1=O [Compound 156] |  |  |  |  |  |  | 99 | 96 | 100 | 99 | 100 | 87
10 | COc1ccc(Cl)c(-c2nn(C)c(=O)c(C3CC3)c2-c2ccc(F)cc2Cl)c1 [Compound 139] |  |  |  |  |  |  | 100 | 0 | 86 | 91 | 93 | 9
11 | Cn1nc(-c2ccc(F)cc2Cl)c(-c2ccc(F)cc2Cl)c(Cl)c1=O [Compound 60] |  |  |  |  |  |  | 100 | 93 | 100 | 99 | 98 | 99
12 | COc1c(-c2ccc(F)cc2Cl)c(-c2cc(F)ccc2Cl)nn(C)c1=O [Compound 120] |  |  |  |  |  |  | 100 | 77 | 100 | 99 | 33 | 0
13 | Cn1nc(-c2ccc(F)cc2Cl)c(-c2ccc(F)cc2Cl)c(CO)c1=O [Compound 172] | 79 | 78 | 92 | 87 | 83 | 0 |  |  |  |  |  | 
14 | CCc1c(-c2c(F)cccc2F)c(-c2c(F)cccc2F)nn(C)c1=O [Compound 46] |  |  |  |  |  |  | 99 | 0 | 98 | 95 | 88 | 99
15 | CC(F)c1c(-c2ccc(F)cc2Cl)c(-c2ccc(F)cc2Cl)nn(C)c1=O (racemic) [Compound 132] |  |  |  |  |  |  | 100 | 0 | 68 |  | 97 | 0
16 | Cn1nc(-c2ccc(F)cc2Cl)c(-c2ccc(F)cc2Cl)c(C(F)F)c1=O [Compound 130] |  |  |  |  |  |  | 100 | 77 | 100 |  | 98 | 98
17 | CC(O)c1c(-c2ccc(F)cc2Cl)c(-c2ccc(F)cc2Cl)nn(C)c1=O (racemic) [Compound 131] |  |  |  |  |  |  | 96 | 19 | 74 |  | 97 | 0
18 | COc1cc(C#N)cc(-c2nn(C)c(=O)c(Cl)c2-c2ccc(F)cc2Cl)c1 [Compound 173] |  |  |  |  |  |  |  | 84 | 100 | 94 | 92 | 99
19 | Cn1nc(-c2ccc(F)cc2Cl)c(-c2ccc(F)cc2Cl)c(C(N)=O)c1=O [Compound 133] |  |  |  |  |  |  | 3 | 0 | 0 |  | 0 | 0
20 | COc1cc(C#N)cc(-c2nn(C)c(=O)c(OC)c2-c2ccc(F)cc2Cl)c1 [Compound 174] |  |  |  |  |  |  |  | 30 | 95 | 97 | 83 | 91
